Laboratory results taken from patent US20230293487A1, “ANTI-INFLAMMATORY COMPOSITION COMPRISING BENZOFURAN-BASED N-ACYLHYDRAZONE DERIVATIVES” (KOREA RESEARCH INSTITUTE OF BIOSCIENCE AND BIOTECHNOLOGY, priority 2020, published 2023).

How the values were obtained:
NF-κB [1] = experiment: NF-κB luciferase reporter assay, TNF-α induced (Test Example 1); assay type: cell-based; conditions: Homo sapiens; HEK293, NF-κB luciferase vector, 10 ng/ml TNF-α, 1 uM compound; FIG. 1; read-out: NF-κB activity inhibited (reporter activity)
Protocol: The cultured human-derived HEK293 cell line was transfected with the NF-κB luciferase (reporter) vector, and treated with 10 ng/ml of TNF-α to induce activation of the NF-κB signaling pathway. In addition, during the above process, 1 uM of each of 9 kinds of compounds represented by [Chemical Formula 1] was treated to measure the inhibitory effect of the NF-κB-mediated inflammatory response regulatory pathway. Specifically, the relative expression level of NF-κB was confirmed.

NF-κB [2] = experiment: NF-κB luciferase assay, luminometer (Test Example 3); assay type: cell-based, human; conditions: HEK293, 1 uM compound, 10 ng/ml TNF-α; FIG. 3
Protocol: HEK293 cell line, a human-derived embryonic kidney cell line, was cultured, transfected with NF-κB luciferase vector, treated with 1 uM of the compound, and then treated with 10 ng/ml of TNF-α to induce the NF-κB pathway. Luciferase assay method was performed to quantitatively measure the effect on NF-κB gene expression using a luminometer.

[3] = test system: mice (oxazolone-induced skin inflammation); experiment: Oxazolone-induced skin inflammation in mouse ears (Test Example 4): naked eye, H&E staining, immune cell count; assay type: in vivo; conditions: compound 20 μl at 500 nM, 5 applications; for number of inflammatory immune cells in skin: counted from H&E pictures, FIG. 6; for skin condition of ears confirmed with naked eye / thickness of the entire skin and epithelium (H&E staining): oxazolone on mouse ears; for skin condition of ears confirmed with naked eye: FIG. 4; for thickness of the entire skin and epithelium (H&E staining): FIG. 5
Protocol: 3% Oxazolone (150 μl) was applied to the abdominal skin of 6-week-old mice to induce an immune response, and 0.5% diluted oxazolone (20 μl) was applied to the ears of mice a total of 5 times at intervals of one day to induce an inflammatory response. After 30 minutes of oxazolone application, Example 4 (CAP-1042) or Example 12 (CAP-1047) was applied a total of 5 times in an amount of 20 μl each at a concentration of 500 nM each.
The number of mice in each experimental group was maintained at 10 or more, and the experiment was repeated twice in total.
Specifically, after H&E staining (FIG. 5), photographs of at least 10 different parts of each sample were taken evenly under a microscope. Then, the number of inflammatory immune cells stained in dark red was directly counted from the pictures taken, and the average value was calculated.

[4] = test system: mice (LPS-induced sepsis); experiment: LPS-induced sepsis (cytokine storm-like) model (Test Example 7); assay type: in vivo; conditions: LPS intraperitoneal, drug intravenous; FIG. 11B
Protocol: Since there were no disease model animals leading to death from a cytokine storm caused by coronaviruses, particularly Sars-Cov2, the present inventors used an acute sepsis model in which an acute inflammatory response is induced to cause the cytokine storm problem and confirmed inhibition of the cytokine storm, the possibility of treating severe acute respiratory syndrome coronavirus 2 infection disease and the possibility of treating sepsis.
An experiment was performed by treating LPS on an animal model (cytokine storm-like model) of sepsis (death). Mice were intraperitoneally administered with LPS for induction of sepsis and injected intravenously with the drug (Example 4), and then blood was collected at 3, 6, and 12 hours. The survival rate was confirmed for 48 hours to observe mortality due to sepsis.

P-p65 protein = experiment: Western blotting of NF-κB canonical pathway, induced with TNF-α (Test Example 5); assay type: cell-based; conditions: TNFα induction, own compound used = Example 4 (1042), b448, FIG. 8
From the text: (§1) The NF-κB signaling pathway is largely divided into canonical and non-canonical pathways. In the canonical pathway, when an inflammatory response is induced by treatment with TNF-α, the amount of P-p65 protein, which is a phosphorylated product of p65 protein, increases and migrates into the nucleus, inducing an inflammatory response. In the non-canonical pathway, when an inflammatory response is induced with a LIGHT compound that activates the non-canonical NF-κB pathway, the p100 protein is converted into p52 protein through processing and migrates into the nucleus to induce an inflammatory response. […] Specifically, in order to confirm whether the activation of NF-κB signaling pathways (canonical and non-canonical pathways) is regulated, the regulation of phosphorylated p65 and p100 proteins, which are major signal regulating molecules, was confirmed using Western blotting. In the present experiment, the compound of Example 4 (1042) was used as the compound according to the present disclosure.

p100 protein = experiment: Western blotting of NF-κB non-canonical pathway, induced with LIGHT (Test Example 5); assay type: cell-based; conditions: LIGHT induction, own compound used = Example 4 (1042), b448, FIG. 8
From the text: as §1

Compound	inhibition at 1 µM (NF-κB [1]) [%]	expression amount of the NF-κB gene (luciferase) (NF-κB [2])	further results
Cc1ccc2oc(C(=O)N/N=C/c3c(Cl)[nH]c4ccccc34)cc2c1 [Example 1, (E)-N′-[(2-chloro-1H-indol-3-yl)methylene]-5-methylbenzofuran-2-carbohydrazide]	≥ 50		
CCOCCn1c(Cl)c(/C=N/NC(=O)c2cc3cc(C)ccc3o2)c2ccccc21 [Example 4, (E)-N′-[(2-chloro-1-(2-ethoxyethyl)-1H-indol-3-yl]methylene}-5-methylbenzofuran-2-carbohydrazide]	≥ 50	significantly decreased	number of inflammatory immune cells in skin [3]: reduced the number of immune cells induced by the inflammatory reaction to the extent very similar to that of the normal case treated with ethanol; skin condition of ears confirmed with naked eye [3]: skin conditions very similar to those of normal animals treated with ethanol; thickness of the entire skin and epithelium (H&E staining) [3]: reduced to the extent very similar to that of the normal skin treated with ethanol; mortality due to sepsis (survival rate after 48 hours) [4]: significantly reduced mortality due to sepsis
CCOCCn1c(Cl)c(/C=N/NC(=O)c2cc3cc(C)ccc3o2)c2cc(OC)ccc21 [Example 8, (E)-N′-[(2-chloro-1-(2-ethoxyethyl)-5-methoxy-1H-indol-3-yl]methylene}-5-methylbenzofuran-2-carbohydrazide]	≥ 50		
CCOCCn1c(Cl)c(/C=N/NC(=O)c2cc3cc(C)ccc3o2)c2ccc(OC)cc21 [Example 9, (E)-N′-[(2-chloro-1-(2-ethoxyethyl)-6-methoxy-1H-indol-3-yl]methylene}-5-methylbenzofuran-2-carbohydrazide]	≥ 50		
CCOCCn1c(Cl)c(/C=N/NC(=O)c2cc3cc(C)ccc3o2)c2cc(F)ccc21 [Example 10, (E)-N′-[(2-chloro-1-(2-ethoxyethyl)-5-fluoro-1H-indol-3-yl]methylene}-5-methylbenzofuran-2-carbohydrazide]	≥ 50	significantly decreased	
CCOCCn1c(Cl)c(/C=N/NC(=O)c2cc3cc(C)ccc3o2)c2cc(Cl)ccc21 [Example 11, (E)-N′-[(2,5-dichloro-1-(2-ethoxyethyl)-1H-indol-3-yl]methylene}-5-methylbenzofuran-2-carbohydrazide]	≥ 50	significantly decreased	
CCOCCn1c(Cl)c(/C=N/NC(=O)c2cc3cc(C)ccc3o2)c2cc(OC(F)(F)F)ccc21 [Example 12, (E)-N′-[(2-chloro-1-(2-ethoxyethyl)-5-(trifluoromethoxy)-1H-indol-3-yl]methylene}-5-methylbenzofuran-2-carbohydrazide]	≥ 50	significantly decreased	skin condition of ears confirmed with naked eye [3]: skin conditions very similar to those of normal animals treated with ethanol; thickness of the entire skin and epithelium (H&E staining) [3]: reduced to the extent very similar to that of the normal skin treated with ethanol
CCOCCn1c(Cl)c(/C=N/NC(=O)c2cc3cc(C)ccc3o2)c2cc(C)ccc21 [Example 13, (E)-N′-[(2-chloro-1-(2-ethoxyethyl)-5-methyl-1H-indol-3-yl]methylene}-5-methylbenzofuran-2-carbohydrazide]	≥ 50	significantly decreased	
CCOC(=O)Cn1c(C)c(/C=N/NC(=O)c2cc3cc(C)ccc3o2)c2ccccc21 [Example 21, ethyl (E)-2-(2-methyl-3-((2-(5-methylbenzofuran-2-carbonyl)hydrazinylidene)methyl)-1H-indol-1-yl)acetate]			melting point: 186 °C
CCOC(=O)Cn1c(C)c(/C=N/NC(=O)c2cc3cc(Cl)ccc3o2)c2ccccc21 [Example 22]			melting point: 214 °C
COC(=O)Cn1c(Cl)c(/C=N/NC(=O)c2cc3cc(C)ccc3o2)c2ccccc21 [Example 23, methyl (E)-2-(2-chloro-3-((2-(5-methylbenzofuran-2-carbonyl)hydrazinylidene)methyl)-1H-indol-1-yl)acetate]	≥ 50		melting point: 212 °C
NC(=O)Nc1sc(-c2ccc(F)cc2)cc1C(N)=O [TPCA1]			inhibition of canonical NF-κB pathway (P-p65) (P-p65 protein): acts on the canonical pathway; inhibition of non-canonical NF-κB pathway (p100 to p52 processing) (p100 protein): not on the non-canonical pathway
(E)-N′-[(2-chloro-1-(2-methoxyethyl)-1H-indol-3-yl]methylene}-5-methylbenzofuran-2-carbohydrazide [Example 7]			number of inflammatory immune cells in skin [3]: reduced the number of immune cells induced by the inflammatory reaction to the extent very similar to that of the normal case treated with ethanol
